Target: T1, PLCγ2 (Homo sapiens, UniProt P16885)
T1 sequence (P16885 1-1195): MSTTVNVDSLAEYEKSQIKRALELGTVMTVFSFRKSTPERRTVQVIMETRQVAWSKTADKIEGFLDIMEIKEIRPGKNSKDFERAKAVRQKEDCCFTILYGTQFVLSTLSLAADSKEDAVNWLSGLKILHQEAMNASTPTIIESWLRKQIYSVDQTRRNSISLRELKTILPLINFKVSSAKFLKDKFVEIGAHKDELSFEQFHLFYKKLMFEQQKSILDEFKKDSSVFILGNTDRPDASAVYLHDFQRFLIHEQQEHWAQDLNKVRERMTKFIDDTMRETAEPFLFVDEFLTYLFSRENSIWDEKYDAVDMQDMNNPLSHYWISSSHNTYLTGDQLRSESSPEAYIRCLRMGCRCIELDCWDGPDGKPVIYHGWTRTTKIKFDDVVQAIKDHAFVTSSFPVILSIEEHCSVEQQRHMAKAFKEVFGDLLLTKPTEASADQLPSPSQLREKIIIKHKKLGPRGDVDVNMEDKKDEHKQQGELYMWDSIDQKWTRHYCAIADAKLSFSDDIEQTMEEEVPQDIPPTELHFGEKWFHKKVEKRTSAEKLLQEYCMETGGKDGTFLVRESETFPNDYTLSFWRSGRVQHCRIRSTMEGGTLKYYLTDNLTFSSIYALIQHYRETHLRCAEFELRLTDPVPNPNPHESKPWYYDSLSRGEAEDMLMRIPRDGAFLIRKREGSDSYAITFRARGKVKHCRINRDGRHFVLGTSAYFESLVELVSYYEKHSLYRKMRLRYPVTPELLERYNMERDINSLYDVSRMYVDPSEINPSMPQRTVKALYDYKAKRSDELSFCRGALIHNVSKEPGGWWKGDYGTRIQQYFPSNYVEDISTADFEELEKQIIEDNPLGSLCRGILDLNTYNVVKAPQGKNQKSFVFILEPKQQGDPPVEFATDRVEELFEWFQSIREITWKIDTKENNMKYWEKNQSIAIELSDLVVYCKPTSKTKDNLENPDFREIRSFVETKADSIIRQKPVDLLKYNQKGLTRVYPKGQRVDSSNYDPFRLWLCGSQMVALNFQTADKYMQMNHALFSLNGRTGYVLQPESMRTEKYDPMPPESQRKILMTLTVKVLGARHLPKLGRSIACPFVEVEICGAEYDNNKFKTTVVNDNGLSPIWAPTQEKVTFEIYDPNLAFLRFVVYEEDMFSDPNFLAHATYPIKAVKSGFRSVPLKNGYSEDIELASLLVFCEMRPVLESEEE
Experiment: inhibition of C8CF3-coumarin processing by purified enzyme
Format: biochemical

IC50: 27.2 µM
Compound: Nc1ncnc2c1ncn2[C@@H]1O[C@H](COP(=O)(O)OP(=O)(O)OP(=O)(O)O)[C@@H](O)[C@H]1O [adenosine triphosphate]

Reference: publication PMC10251139 (SLAS discovery : advancing life sciences R & D, 2023)
